In ChEMBL document CHEMBL5584295, “Formononetin Derivative for Osteoporosis by Simultaneous Regulating Osteoblast and Osteoclast” (J Nat Prod, 2024):
Active and inactive are the calls of the source. The calls are words filed in the database; no cut-off is given here.

Experiments:
[1] = Induction of osteogenesis in Wistar rat bone marrow-derived MSC assessed as increase in bone formation by measuring fold change at 0.4 uM measured after 14 days with fresh culture medium replacement for every 3 days by Alizarin red staining based analysis; format: functional; conditions: time 14 day
[2] = Cytotoxicity against Wistar rat bone marrow-derived MSC assessed as reduction in cell viability at 0.4 to 10 uM after 72 hrs by MTS assay; format: toxicity, cell-based; conditions: dose 0.4-10 µM
Mus musculus [3] = test: Anti-osteoporosis activity in OVX-induced osteoporosis ICR mouse model assessed as increase in bone mineral density by measuring fold change in femur at 10 mg/kg, ip and measured after 12 weeks by micro-CT analysis; format: functional
Mus musculus [4] = test: Anti-osteoporosis activity in OVX-induced osteoporosis ICR mouse model assessed as increase in bone mineral density by measuring fold change in femur at 20 mg/kg, IG and measured after 12 weeks by micro-CT analysis; format: functional
Mus musculus [5] = test: Anti-osteoporosis activity in OVX-induced osteoporosis ICR mouse model assessed as increase in BV/TV by measuring fold change in femur at 20 mg/kg, IG and measured after 12 weeks by micro-CT analysis; format: functional
Mus musculus [6] = test: Anti-osteoporosis activity in OVX-induced osteoporosis ICR mouse model assessed as increase in trabecular number in femur at 20 mg/kg, IG and measured after 12 weeks by micro-CT analysis; format: functional, organism-based
Mus musculus [7] = test: Anti-osteoporosis activity in OVX-induced osteoporosis ICR mouse model assessed as increase in trabecular thickness by measuring fold change in femur at 20 mg/kg, IG and measured after 12 weeks by micro-CT analysis; format: functional
Mus musculus [8] = test: Anti-osteoporosis activity in OVX-induced osteoporosis ICR mouse model assessed as decrease in trabecular spacing by in femur at 10 mg/kg, ip and measured after 12 weeks by micro-CT analysis relative to control; format: functional
Mus musculus [9] = test: Anti-osteoporosis activity in OVX-induced osteoporosis ICR mouse model assessed as decrease in trabecular spacing by in femur at 20 mg/kg, IG and measured after 12 weeks by micro-CT analysis relative to control; format: functional
[10] = Cytotoxicity against Wistar rat bone marrow-derived MSC assessed as inhibition of cell viability at 10 uM after 72 hrs by MTS assay relative to control; format: toxicity, cell-based; conditions: bone marrow-derived mesenchymal stem cells (MSC), read-out: INH
[11] = Cytotoxicity against Wistar rat bone marrow-derived MSC assessed as reduction in cell viability at 0.4 to 2 uM after 72 hrs by MTS assay; format: toxicity, cell-based; conditions: dose 0.4-2 µM
[12] = Induction of osteogenesis in Wistar rat bone marrow-derived MSC assessed as increase in bone formation by measuring fold change at 1 uM measured after 14 days with fresh culture medium replacement for every 3 days by Alizarin red staining based analysis; format: functional; conditions: time 14 day
MSC [13] = test: Induction of osteogenesis in Wistar rat bone marrow-derived MSC assessed as increase in calcium nodes at 1 uM measured after 14 days with fresh culture medium replacement for every 3 days by Alizarin red staining based analysis; format: functional, cell-based; conditions: time 14.0 day
MSC [14] = test: Induction of osteogenesis in Wistar rat bone marrow-derived MSC assessed as increase in ALP at 1 uM measured after 1 week with fresh culture medium replacement for every 3 days by ALP staining based analysis; format: functional, cell-based; conditions: time 1.0 weeks
RAW264.7 [15] = test: Inhibition of RANKL-induced osteoclastogenesis in mouse RAW264 cells assessed as number of osteoclast at 1 uM incubated for 5 days by TRAP staining based microscopic analysis (reference value: 95); format: functional; conditions: time 5 day
MSC [16] = test: Induction of osteogenesis in Wistar rat bone marrow-derived MSC assessed as increase in increase in calcium nodes at 0.4 uM measured after 14 days with fresh culture medium replacement for every 3 days by Alizarin red staining based analysis; format: functional, cell-based; conditions: time 14.0 day
MSC [17] = test: Induction of osteogenesis in Wistar rat bone marrow-derived MSC assessed as increase in ALP at 0.4 uM measured after 1 week with fresh culture medium replacement for every 3 days by ALP staining based analysis; format: functional, cell-based; conditions: time 1.0 weeks
RAW264.7 [18] = test: Cytotoxicity against mouse RAW264.7 cells assessed as reduction in cell viability at 1 to 10 uM after 72 hrs by MTS assay; format: toxicity, cell-based; conditions: raw264.7, 72 h, dose 1-10 µM
RAW264.7 [19] = test: Inhibition of RANKL-induced osteoclastogenesis in mouse RAW264 cells assessed as decrease in number of osteoclast at 1 to 10 uM incubated for 5 days by TRAP staining based microscopic analysis; format: functional, cell-based; conditions: dose 1-10 µM, time 5.0 day
RAW264.7 [20] = test: Inhibition of RANK/RANKL/OPG signaling pathway in mouse RAW264.7 cells assessed as decrease in RANKL-stimulated RANK protein expression level at 1 uM after 5 days by Western blot analysis; format: cell-based; conditions: time 5.0 day
RAW264.7 [21] = test: Inhibition of RANK/RANKL/OPG signaling pathway in mouse RAW264.7 cells assessed as decrease in RANKL-stimulated NFATc-1 protein expression level at 1 uM after 5 days by Western blot analysis; format: cell-based; conditions: time 5.0 day
RAW264.7 [22] = test: Inhibition of RANK/RANKL/OPG signaling pathway in RANKL-stimulated mouse RAW264.7 cells assessed as increase in OPG protein expression level at 1 uM after 5 days by Western blot analysis; format: cell-based; conditions: time 5.0 day
RAW264.7 [23] = test: Inhibition of RANK/RANKL/OPG signaling pathway in RANKL-stimulated mouse RAW264.7 cells assessed as increase in c-Jun protein expression level at 1 uM after 5 days by Western blot analysis; format: cell-based; conditions: time 5.0 day
Mus musculus [24] = test: Anti-osteoporosis activity in OVX-induced osteoporosis ICR mouse model assessed as increase in BV/TV by measuring fold change in femur at 10 mg/kg, ip and measured after 12 weeks by micro-CT analysis; format: functional
Mus musculus [25] = test: Anti-osteoporosis activity in OVX-induced osteoporosis ICR mouse model assessed as increase in trabecular number by measuring fold change in femur at 10 mg/kg, ip and measured after 12 weeks by micro-CT analysis; format: functional
Mus musculus [26] = test: Anti-osteoporosis activity in OVX-induced osteoporosis ICR mouse model assessed as increase in trabecular number by measuring fold change in femur at 20 mg/kg, IG and measured after 12 weeks by micro-CT analysis; format: functional
Mus musculus [27] = test: Anti-osteoporosis activity in OVX-induced osteoporosis ICR mouse model assessed as increase in trabecular thickness by measuring fold change in femur at 10 mg/kg, ip and measured after 12 weeks by micro-CT analysis; format: functional
RAW264.7 [28] = test: Inhibition of RANKL-induced osteoclastogenesis in mouse RAW264 cells assessed as number of osteoclast at 5 uM incubated for 5 days by TRAP staining based microscopic analysis (reference value: 95); format: functional; conditions: time 5 day
RAW264.7 [29] = test: Inhibition of RANKL-induced osteoclastogenesis in mouse RAW264 cells assessed as number of osteoclast at 10 uM incubated for 5 days by TRAP staining based microscopic analysis (reference value: 95); format: functional; conditions: time 5 day
MSC [30] = test: Activation of BMP/Smad signaling pathway in Wistar rat bone marrow-derived MSC assessed as increase in bmp2 mRNA expression at 0.4 uM incubated for 14 days by RT-qPCR analysis; format: cell-based; conditions: filed as activator, time 14.0 day
MSC [31] = test: Activation of BMP/Smad signaling pathway in Wistar rat bone marrow-derived MSC assessed as increase in bmp5 mRNA expression at 0.4 uM incubated for 14 days by RT-qPCR analysis; format: cell-based; conditions: filed as activator, time 14.0 day
MSC [32] = test: Activation of BMP/Smad signaling pathway in Wistar rat bone marrow-derived MSC assessed as increase in smad1 mRNA expression at 0.4 uM incubated for 14 days by RT-qPCR analysis; format: cell-based; conditions: filed as activator, time 14.0 day
MSC [33] = test: Activation of BMP/Smad signaling pathway in Wistar rat bone marrow-derived MSC assessed as increase in smad4 mRNA expression at 0.4 uM incubated for 14 days by RT-qPCR analysis; format: cell-based; conditions: filed as activator, time 14.0 day
MSC [34] = test: Activation of BMP/Smad signaling pathway in Wistar rat bone marrow-derived MSC assessed as increase in smad9 mRNA expression at 0.4 uM incubated for 14 days by RT-qPCR analysis; format: cell-based; conditions: filed as activator, time 14.0 day
MSC [35] = test: Activation of BMP/Smad signaling pathway in Wistar rat bone marrow-derived MSC assessed as increase in alp mRNA expression at 0.4 uM incubated for 14 days by RT-qPCR analysis; format: cell-based; conditions: filed as activator, time 14.0 day

Structure (SMILES): CCCCCCCCNCc1c(O)ccc2c(=O)c(-c3ccc(OC)cc3)coc12
- fold change (FC) [1]: 1.1
- Activity [2]: Non-Toxic

Structure (SMILES): CC(C)Oc1ccc2c(=O)c(-c3ccccc3)coc2c1 [IPRIFLAVONE]
- fold change (FC) (Mus musculus [3]): 1.9
- fold change (FC) (Mus musculus [4]): 3.3
- fold change (FC) (Mus musculus [5]): 2.3
- Activity (Mus musculus [6]): inactive
- fold change (FC) (Mus musculus [7]): 1.17
- Activity (Mus musculus [8]): inactive
- Activity (Mus musculus [9]): inactive

Structure (SMILES): COc1ccc(-c2coc3c(C=O)c(O)ccc3c2=O)cc1
- fold change (FC) [1]: 1.3
- cytotoxicity at 72 h, 10 µM [10]: 15.5%
- Activity [11]: Non-Toxic

Structure (SMILES): COc1ccc(-c2coc3cc(O)ccc3c2=O)cc1 [FORMONONETIN]
- fold change (FC) [12]: 1.4
- Activity (MSC [13]): Active
- Activity (MSC [14]): Active
- Activity (RAW264.7 [15]): 66

Structure (SMILES): COc1ccc(-c2coc3c4c(ccc3c2=O)OCN(C2CCCCC2)C4)cc1
- fold change (FC) [1]: 0.8
- Activity [2]: Non-Toxic

Structure (SMILES): CCCCN1COc2ccc3c(=O)c(-c4ccc(OC)cc4)coc3c2C1
- fold change (FC) [1]: 1.9
- Activity [2]: Non-Toxic
- Activity (MSC [16]): Active
- Activity (MSC [17]): Active
- Activity (RAW264.7 [18]): Non-Toxic
- inhibition (RAW264.7 [19]): inactive
- inhibition (RAW264.7 [20]): inactive
- inhibition (RAW264.7 [21]): inactive
- inhibition (RAW264.7 [22]): inactive
- inhibition (RAW264.7 [23]): inactive
- fold change (FC) (Mus musculus [3]): 10.3
- fold change (FC) (Mus musculus [4]): 3.3
- fold change (FC) (Mus musculus [24]): 6.47
- fold change (FC) (Mus musculus [5]): 2.2
- fold change (FC) (Mus musculus [25]): 1.94
- fold change (FC) (Mus musculus [26]): 1.42
- fold change (FC) (Mus musculus [27]): 1.51
- Activity (Mus musculus [8]): 43%
- Activity (Mus musculus [9]): 63%

Structure (SMILES): CCCCCCN1COc2ccc3c(=O)c(-c4ccc(OC)cc4)coc3c2C1
- fold change (FC) [1]: 1.2
- Activity [2]: Non-Toxic

Structure (SMILES): COc1ccc(-c2coc3c4c(ccc3c2=O)OCN(Cc2ccccc2)C4)cc1
- fold change (FC) [1]: 1
- Activity [2]: Non-Toxic

Structure (SMILES): COc1ccc(-c2coc3c4c(ccc3c2=O)OCN(Cc2ccoc2)C4)cc1
- fold change (FC) [1]: 2.3
- Activity [2]: Non-Toxic
- Activity (MSC [16]): Active
- Activity (MSC [17]): Active
- Activity (RAW264.7 [18]): Non-Toxic
- Activity (RAW264.7 [15]): 30
- Activity (RAW264.7 [28]): 24
- Activity (RAW264.7 [29]): 29
- Activity (MSC [30]): Active
- Activity (MSC [31]): Active
- Activity (MSC [32]): Active
- Activity (MSC [33]): Active
- Activity (MSC [34]): Active
- Activity (MSC [35]): Active
- inhibition (RAW264.7 [20]): Active
- inhibition (RAW264.7 [21]): Active
- inhibition (RAW264.7 [22]): Active
- inhibition (RAW264.7 [23]): Active
- fold change (FC) (Mus musculus [3]): 15.2
- fold change (FC) (Mus musculus [24]): 9.25
- fold change (FC) (Mus musculus [5]): 2.13
- fold change (FC) (Mus musculus [25]): 2.17
- Activity (Mus musculus [6]): inactive
- fold change (FC) (Mus musculus [27]): 1.9
- Activity (Mus musculus [8]): 37%
- Activity (Mus musculus [9]): inactive
